tested on: HCC1599; assay: normalised response (% of control), CellTox Green; higher = less cell death (100 = DMSO, 0 = benzethonium chloride kill control); settings: incubation time: 72 h
Method in brief: (§1)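 Normalised signals at single concentrations make up the values. They come from breast cancer cell lines seeded (20 µl suspension) into 384-well plates with compound at 5 concentrations in 10-fold steps over a compound-specific 10,000-fold range, incubated 72 h, and read for CellTox Green fluorescence then CellTiter-Glo luminescence. Each plate was normalised to 0.1 % DMSO (100) and a positive kill control (0).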

Row | SMILES | normalised response [%]
1 | COc1ccc(C2=N[C@@H](c3ccc(Cl)cc3)[C@@H](c3ccc(Cl)cc3)N2C(=O)N2CCNC(=O)C2)c(OC(C)C)c1 [Nutlin-3] (1000 nM) | 99.6
2 | COC1=CC(c2cc3ccccc3[nH]2)=N/C1=C\c1[nH]c(C)cc1C [Obatoclax] (10000 nM) | 99.9
3 | CN1CCN(c2ccc3nc(-c4c(N)c5c(F)cccc5[nH]c4=O)[nH]c3c2)CC1 [Dovitinib] (10000 nM) | 104
4 | COc1ccc(C2=N[C@@H](c3ccc(Cl)cc3)[C@@H](c3ccc(Cl)cc3)N2C(=O)N2CCNC(=O)C2)c(OC(C)C)c1 [Nutlin-3] (10000 nM) | 101
5 | COC1=C2C[C@@H](C)C[C@H](OC)[C@H](O)[C@@H](C)/C=C(\C)[C@H](OC(N)=O)[C@@H](OC)/C=C\C=C(/C)C(=O)NC(=CC1=O)C2=O [Geldanamycin] (1000 nM) | 92.2
6 | CC(C)(C)c1cc(NC(=O)Nc2ccc(-c3cn4c(n3)sc3cc(OCCN5CCOCC5)ccc34)cc2)no1 [Quizartinib] (1000 nM) | 105
7 | COc1cccc2c1C(=O)c1c(O)c3c(c(O)c1C2=O)C[C@@](O)(C(C)=O)C[C@@H]3O[C@H]1C[C@H](N)[C@H](O)[C@H](C)O1 [Daunorubicin] (100 nM) | 102
8 | O=c1[nH]cc(F)c(=O)[nH]1 [Fluorouracil] (10000 nM) | 95.2
9 | O=C(c1ccc(OCCN2CCCCC2)cc1)c1c(-c2ccc(O)cc2)sc2cc(O)ccc12 [Raloxifene] (10000 nM) | 58.4
10 | CC(C)(C)c1cc(NC(=O)Nc2ccc(-c3cn4c(n3)sc3cc(OCCN5CCOCC5)ccc34)cc2)no1 [Quizartinib] (100 nM) | 106
11 | CCS(=O)(=O)c1cccc(-c2cc(C(=O)NC3CCN(C)CC3)c(C)c3[nH]c4ncc(C)cc4c23)c1 [TAK-901] (100 nM) | 99.7
12 | CS(=O)(=O)OCCCCOS(C)(=O)=O [Busulfan] (100000 nM) | 108
13 | O=c1[nH]c(=O)n([C@H]2C[C@H](O)[C@@H](CO)O2)cc1F [Floxuridine] (10000 nM) | 106
14 | Cn1cnc2c(F)c(Nc3ccc(Br)cc3F)c(C(=O)NOCCO)cc21 [MEK-162] (1000 nM) | 94.4
15 | O=C(c1ccc(OCCN2CCCCC2)cc1)c1c(-c2ccc(O)cc2)sc2cc(O)ccc12 [Raloxifene] (1000 nM) | 102
16 | O=c1[nH]c(=O)n([C@H]2C[C@H](O)[C@@H](CO)O2)cc1F [Floxuridine] (1000 nM) | 104
17 | CCCC(CCC)C(=O)O [Valproic acid] (10000 nM) | 93.2
18 | CS(=O)(=O)CCNCc1ccc(-c2ccc3ncnc(Nc4ccc(OCc5cccc(F)c5)c(Cl)c4)c3c2)o1 [Lapatinib] (1000 nM) | 107
19 | COC1=CC(c2cc3ccccc3[nH]2)=N/C1=C\c1[nH]c(C)cc1C [Obatoclax] (1000 nM) | 100

tested on: CAL-148; assay: as above; settings: incubation time: 72 h
Method in brief: as §1

Row | SMILES | normalised response [%]
20 | COc1cccc2c1C(=O)c1c(O)c3c(c(O)c1C2=O)C[C@@](O)(C(C)=O)C[C@@H]3O[C@H]1C[C@H](N)[C@H](O)[C@H](C)O1 [Daunorubicin] (1000 nM) | 75
21 | Cn1c(=O)c(F)c(Nc2ccc(I)cc2F)c2c(=O)n(C[C@@H](O)CO)cnc21 [TAK-733] (100 nM) | 105
22 | C[C@@H]1C=C2C(=O)O[C@@H]3CC[C@H](C1)[C@]23O [Galiellalactone] (50000 nM) | 103
23 | C[C@@H]1C=C2C(=O)O[C@@H]3CC[C@H](C1)[C@]23O [Galiellalactone] (5000 nM) | 104
24 | COc1ccc(C2=N[C@@H](c3ccc(Cl)cc3)[C@@H](c3ccc(Cl)cc3)N2C(=O)N2CCNC(=O)C2)c(OC(C)C)c1 [Nutlin-3] (1000 nM) | 102
25 | COC1=CC(c2cc3ccccc3[nH]2)=N/C1=C\c1[nH]c(C)cc1C [Obatoclax] (10000 nM) | 77.3
26 | CN1CCN(c2ccc3nc(-c4c(N)c5c(F)cccc5[nH]c4=O)[nH]c3c2)CC1 [Dovitinib] (10000 nM) | 92.4
27 | COc1ccc(C2=N[C@@H](c3ccc(Cl)cc3)[C@@H](c3ccc(Cl)cc3)N2C(=O)N2CCNC(=O)C2)c(OC(C)C)c1 [Nutlin-3] (10000 nM) | 43.8
28 | CC(C)(C)c1cc(NC(=O)Nc2ccc(-c3cn4c(n3)sc3cc(OCCN5CCOCC5)ccc34)cc2)no1 [Quizartinib] (1000 nM) | 103
29 | COc1cccc2c1C(=O)c1c(O)c3c(c(O)c1C2=O)C[C@@](O)(C(C)=O)C[C@@H]3O[C@H]1C[C@H](N)[C@H](O)[C@H](C)O1 [Daunorubicin] (100 nM) | -17.1
30 | O=c1[nH]cc(F)c(=O)[nH]1 [Fluorouracil] (10000 nM) | 92.9
31 | O=C(c1ccc(OCCN2CCCCC2)cc1)c1c(-c2ccc(O)cc2)sc2cc(O)ccc12 [Raloxifene] (10000 nM) | 103
32 | CC(C)(C)c1cc(NC(=O)Nc2ccc(-c3cn4c(n3)sc3cc(OCCN5CCOCC5)ccc34)cc2)no1 [Quizartinib] (100 nM) | 106
33 | CCS(=O)(=O)c1cccc(-c2cc(C(=O)NC3CCN(C)CC3)c(C)c3[nH]c4ncc(C)cc4c23)c1 [TAK-901] (100 nM) | 42
34 | CS(=O)(=O)OCCCCOS(C)(=O)=O [Busulfan] (100000 nM) | 81.5
35 | O=c1[nH]c(=O)n([C@H]2C[C@H](O)[C@@H](CO)O2)cc1F [Floxuridine] (10000 nM) | 106
36 | O=C(c1ccc(OCCN2CCCCC2)cc1)c1c(-c2ccc(O)cc2)sc2cc(O)ccc12 [Raloxifene] (1000 nM) | 92
37 | CCCC(CCC)C(=O)O [Valproic acid] (10000 nM) | 102
38 | CS(=O)(=O)CCNCc1ccc(-c2ccc3ncnc(Nc4ccc(OCc5cccc(F)c5)c(Cl)c4)c3c2)o1 [Lapatinib] (1000 nM) | 64.5
39 | COC1=CC(c2cc3ccccc3[nH]2)=N/C1=C\c1[nH]c(C)cc1C [Obatoclax] (1000 nM) | 105

tested on: CAL-120; assay: as above; settings: incubation time: 72 h
Method in brief: as §1

Row | SMILES | normalised response [%]
40 | COc1cccc2c1C(=O)c1c(O)c3c(c(O)c1C2=O)C[C@@](O)(C(C)=O)C[C@@H]3O[C@H]1C[C@H](N)[C@H](O)[C@H](C)O1 [Daunorubicin] (1000 nM) | 99.2
41 | Cn1c(=O)c(F)c(Nc2ccc(I)cc2F)c2c(=O)n(C[C@@H](O)CO)cnc21 [TAK-733] (100 nM) | 97
42 | C[C@@H]1C=C2C(=O)O[C@@H]3CC[C@H](C1)[C@]23O [Galiellalactone] (50000 nM) | 102
43 | C[C@@H]1C=C2C(=O)O[C@@H]3CC[C@H](C1)[C@]23O [Galiellalactone] (5000 nM) | 58.8
44 | COc1ccc(C2=N[C@@H](c3ccc(Cl)cc3)[C@@H](c3ccc(Cl)cc3)N2C(=O)N2CCNC(=O)C2)c(OC(C)C)c1 [Nutlin-3] (1000 nM) | 102
45 | COC1=CC(c2cc3ccccc3[nH]2)=N/C1=C\c1[nH]c(C)cc1C [Obatoclax] (10000 nM) | 99.2
46 | CN1CCN(c2ccc3nc(-c4c(N)c5c(F)cccc5[nH]c4=O)[nH]c3c2)CC1 [Dovitinib] (10000 nM) | 101
47 | COc1ccc(C2=N[C@@H](c3ccc(Cl)cc3)[C@@H](c3ccc(Cl)cc3)N2C(=O)N2CCNC(=O)C2)c(OC(C)C)c1 [Nutlin-3] (10000 nM) | 98.2
48 | COC1=C2C[C@@H](C)C[C@H](OC)[C@H](O)[C@@H](C)/C=C(\C)[C@H](OC(N)=O)[C@@H](OC)/C=C\C=C(/C)C(=O)NC(=CC1=O)C2=O [Geldanamycin] (1000 nM) | 102

From the supplement of paper PMC4862054
